Measured values as given in US10548897B2, “KSR antagonists” (Icahn School of Medicine at Mount Sinai, priority 2015, dated 2020).

Tests used:
[1] = tested on: ERK phosphorylation in SK-MEL-239 cell line; assay: ERK phosphorylation dose response to trametinib, SK-MEL-239; type: cell-based; conditions: SK-MEL-239 (RAF-mutant)
MEK = assay: Inhibitory activity against purified MEK; type: biochemical
[2] = tested on: MAPK pathway readouts (pERK, pMEK, pRSK) in A375 and HCT-116; assay: Western blot of MAPK pathway readouts, treatment with trametinib combinations; type: cell-based
[3] = tested on: MEK1 phosphorylation by B-RAF; assay: RAF phosphorylation assay, MEK1 alone (KSR absent); type: biochemical; conditions: 10 μM compound, free MEK1
Experimental: (§1) FIGS. 9A-9C show phosphorylation of MEK1, KSR2:MEK1, and KSR2^A690F:MEK1 by B-RAF over time in the presence of Compound 21. Relative pMEK was determined by quantification of band intensities from western blots using Image Lab Software 4.1.
(§2) In particular, a variant of B-RAF was identified that could be expressed in high yield from E. Coli and which also retained near wild-type levels of kinase activity towards MEK1. For in vitro kinase assays, indicated concentrations of B-RAF and 1 μM KSR2-MEK1 or 1 μM MEK1 proteins were pre-incubated with 10 μM of indicated compounds for 15 minutes in buffer containing 25 mM Tris pH 7.5, 150 mM NaCl, 10 mM MgCl2, and 2% DMSO. Kinase reactions were initiated by the addition of 100 μM ATP and halted at the indicated times by the addition of 6×SDS loading dye. Samples were examined by western blotting as described for the ATP-biotin experiments and by probing overnight with a MEK1/2 Ser218-Ser222 phospho-specific antibody (Cell signaling). Membranes were visualized using enhanced chemiluminescence on a Biodoc (Biorad) for quantification purposes.

[4] = target: KSR2:MEK1 phosphorylation by B-RAF (Homo sapiens (Human), UniProt Q6VAB6); assay: RAF phosphorylation assay, KSR2:MEK1 substrate; type: biochemical; conditions: 10 μM compound, 100 μM ATP, pMEK Ser218/Ser222
Experimental: as §1, §2

[5] = target: KSR2^A690F:MEK1 phosphorylation by B-RAF (Homo sapiens (Human), UniProt Q6VAB6, A690F); assay: RAF phosphorylation assay, KSR2^A690F:MEK1 substrate; type: biochemical; conditions: 10 μM compound
Experimental: as §1, §2

COc1cc2ncnc(Nc3ccc(Oc4ccccc4)cc3C)c2cc1OC [Compound 21, 6,7-Dimethoxy-N-(2-methyl-4-phenoxyphenyl)quinazolin-4-amine 2,2,2-trifluoroacetate]
enhancement in the IC90 of trametinib on ERK phosphorylation [1]: not
inhibitory activity against purified MEK (MEK): lacked detectable inhibitory activity
MAPK pathway inhibition (pERK, pMEK, pRSK), single agent ([2]; alone, compared with Compound 21 + trametinib co-treatment): did not display the same pathway inhibition
MAPK pathway inhibition (pERK, pMEK, pRSK) in combination with trametinib ([2]; combined with trametinib, A375 and HCT-116): reduction in MAPK pathway readouts
MEK phosphorylation by RAF, KSR absent [3]: essentially inactive
KSR-stimulated MEK phosphorylation by RAF [4]: significantly reduced
MEK phosphorylation by RAF, KSR2^A690F mutant [5]: essentially inactive
